Test results taken from patent US7517902B2, “Substituted indazoles, compositions containing the same, and the preparation and use thereof” (Aventis Pharma S.A., priority 2004, dated 2009).
Counter-ions that a name gives are not always drawn.

Legend:
[1] = target: T1, Aurora2 (Homo sapiens, UniProt O14965); assay: Aurora2 enzyme assay, NuMA substrate phosphorylation (Flashplate); type: biochemical; conditions: read-out: IC 50 Aurora2
T1 construct: Aurora 2: whole recombinant protein comprising an N-terminal histidine tail; His tag (histidine tail) (N); made in house; host or cells: E. coli
T1 sequence (O14965 1-403): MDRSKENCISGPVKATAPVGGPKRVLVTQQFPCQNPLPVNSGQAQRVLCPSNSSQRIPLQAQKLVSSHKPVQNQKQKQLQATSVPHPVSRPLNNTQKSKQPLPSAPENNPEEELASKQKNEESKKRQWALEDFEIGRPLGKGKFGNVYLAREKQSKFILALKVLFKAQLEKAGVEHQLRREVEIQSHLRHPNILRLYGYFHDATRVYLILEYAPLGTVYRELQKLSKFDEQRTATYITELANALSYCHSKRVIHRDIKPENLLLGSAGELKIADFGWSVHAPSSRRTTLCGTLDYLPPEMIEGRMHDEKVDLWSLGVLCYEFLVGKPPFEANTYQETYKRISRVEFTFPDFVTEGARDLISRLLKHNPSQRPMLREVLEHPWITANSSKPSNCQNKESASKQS
How it was run: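 Recombinant full-length N-His Aurora2 (E. coli), 10 nM, phosphorylates 500 nM His-NuMA fragment with 1 µM ATP plus [33P]ATP in Tris/HCl pH 7.5, NaCl, MgCl2, DTT, 37 °C, 30 min, on Ni-chelate Flashplates. Incorporated 33P counted by scintillation; percent inhibition versus enzyme control after background subtraction.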

[2] = target: T2, human KDR enzyme (Homo sapiens, UniProt P35968); assay: KDR substrate phosphorylation assay (scintillation, 96-well plate); type: biochemical
T2 construct: The cytoplasmic domain of the human KDR enzyme was cloned in the form of a GST fusion; GST; made in house; host or cells: SF21 insect cells (baculovirus, pFastBac)
T2 sequence (P35968 786-1356 limits assumed): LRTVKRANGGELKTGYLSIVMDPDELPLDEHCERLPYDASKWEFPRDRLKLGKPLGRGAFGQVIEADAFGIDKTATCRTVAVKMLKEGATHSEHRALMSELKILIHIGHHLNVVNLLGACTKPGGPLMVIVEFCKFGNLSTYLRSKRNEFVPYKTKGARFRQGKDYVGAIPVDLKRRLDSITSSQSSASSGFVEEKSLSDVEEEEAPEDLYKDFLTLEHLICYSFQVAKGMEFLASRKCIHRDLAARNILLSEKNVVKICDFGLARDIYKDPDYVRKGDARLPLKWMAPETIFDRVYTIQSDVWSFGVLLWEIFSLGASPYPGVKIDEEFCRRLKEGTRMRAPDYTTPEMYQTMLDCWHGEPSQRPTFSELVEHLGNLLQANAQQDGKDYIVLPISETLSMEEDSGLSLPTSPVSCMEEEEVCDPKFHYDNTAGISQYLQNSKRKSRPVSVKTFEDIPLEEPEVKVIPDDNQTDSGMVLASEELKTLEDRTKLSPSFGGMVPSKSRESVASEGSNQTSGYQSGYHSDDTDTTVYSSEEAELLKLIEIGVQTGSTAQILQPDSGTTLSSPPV
How it was run: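 GST-fused cytoplasmic domain of human KDR (Sf21-expressed, ~60% pure; 100 ng) mixed with compound at 4 °C in MOPS buffer pH 7.2 with Mg2+/Mn2+, DTT, EGTA, vanadate, NaF. Started with 2 μg GST-PLCγ SH2-SH3, γ33P-ATP and cold ATP (2 μM in starting solution); 1 h, 37 °C, EDTA stop. Result: % inhibition vs no-compound control.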

Row | IC50 [1] | IC50 [2] | Compound
1 | 200 nM |  | Nc1n[nH]c2cc(-c3ccc(NS(=O)(=O)c4cccc(Cl)c4Cl)cc3)ccc12 [Example 2, 1-[4-(3-Amino-1H-indazol-6-yl)phenyl]-2,3-dichlorobenzenesulfonamide hydrochloride]
2 | 133 nM | 864 nM | O=C(Nc1n[nH]c2cc(-c3ccc(NS(=O)(=O)c4cccc(Cl)c4Cl)cc3)ccc12)c1ccsc1 [Example 3, 3-Thiophenecarboxylic acid {6-[4-(2,3dichlorobenzenesulfonylamino)phenyl]-1H-indazol-3-yl}amide]
3 | 37 nM | 1870 nM | O=C(Nc1n[nH]c2c(F)c(-c3ccc(NS(=O)(=O)c4cccc(Cl)c4Cl)cc3)ccc12)c1ccsc1 [Example 5, 3-Thiophenecarboxylic acid {6-[4-(2,3-dichlorobenzenesulfonylamino)-7-fluorophenyl]-1H-indazol-3-yl}amide]
4 | 87 nM | 6590 nM | Nc1n[nH]c2c(F)c(-c3ccc(NS(=O)(=O)c4cccc(Cl)c4Cl)cc3)ccc12 [Example 8, 1-[4-(3-Amino-1H-indazol-6-yl)-7-fluorophenyl]-2,3-dichlorobenzenesulfonamide hydrochloride]
